Article PMC12032720, “Pharmacological assessment of the extract and a novel compound of Bacillus velezensis DM derived from the rhizosphere of Datura metel L. with microbial molecular screening” (BMC Complementary Medicine and Therapies, 2025)
In brackets after ≈: the same amount, converted by molar mass. Several values for one entry are separate records, joined by “and”; a condition that tells them apart may be missing. Identical values can stand only once. Like-named read-outs stand apart in the source and are kept apart here.

What was measured:
[1] = test system: THLE-2 normal cell line; test: Cytotoxicity on normal epithelial cells THLE-2 (selectivity index); assay type: cell-based; conditions: for IC50: Homo sapiens, THLE-2, normal cell line, mean ± SD; for SI (selectivity index): THLE-2 versus HCT-116
Method: (§1) Diverse human cancer cell lines: liver cancer cells (HepG2), colon cancer cell line (HCT-116), and breast cancer cell line (MCF-7) were brought from VACSERA Tissue Culture Unit (Giza, Egypt). RPMI-1640 media enhanced with 10% fetal bovine serum and […] gentamycin were employed to culture the cells. The cells were incubated at 37 °C with 5% CO2. To determine the cytotoxic activity, cells were treated with various doses (0–100 µg/ mL) of B. velezensis DM extract or Doxorubicin, and their viability compared to untreated controls was assessed. Compound (1) cytotoxic potential was evaluated against HCT-116 as well as normal epithelial cells (THLE2) to calculate the selectivity index (SI) as formerly depicted.
(§2) IC50 was calculated by the Graph Pad Prism (version 8, San Diego, CA, USA) (n = 3 replicates). Data are presented as mean ± SD.

[2] = test system: HCT-116; test: MTT cytotoxicity on colon cancer cell line HCT-116; assay type: cell-based; conditions: Homo sapiens, mean ± SD
Method: as §1, §2

[3] = Antioxidant ABTS assay; conditions: mean ± SD
Method: Antioxidant ABTS assay: the capacity of B. velezensis DM extract to scavenge ABTS radical cations was assessed compared to Quercetin at a range of concentrations, including 300, 150, 75, 25, and 10 µg/ mL [38].
as §2

[4] = Antioxidant DPPH assay; conditions: mean ± SD
Method: Antioxidant DPPH assay: To inspect the antioxidant potential of B. velezensis DM extract, a methodology reported by Nahar et al. was used compared to Trolox. IC50 was calculated by the Graph Pad Prism (version 8, San Diego, CA, USA) (n = 3 replicates). Data are presented as mean ± SD.

[5] = compound (1) experiment, read-out: IC50 HCT-116 (Table 4)

ABTS (IC50) [3] [µg/mL] | DPPH (IC50) [4] [µg/mL] | Structure (SMILES) | IC50 [1] [µg/mL] | SI (selectivity index) [1] | IC50 [2, 5] [µg/mL] | IC50 ([2]; MTT, 0–100 µg/mL, n = 3, read-out: IC50 HCT-116 (Table 3)) [µg/mL]
– | – | CNC=C(CC(O)C(O)CO)NC (stereo not drawn) [Compound (1), 5,6-di(methylamino)hex-5-ene-1,2,3-triol] | 68.7 ± 3.34 (≈ 361 µM) | 2.5 and 2.54 | 27 ± 1.85 (≈ 142 µM) | –
42.13 ± 1.92 | – | O=c1c(O)c(-c2ccc(O)c(O)c2)oc2cc(O)cc(O)c12 [Quercetin] | – | – | – | –
– | 113.31 ± 4.2 | Cc1c(C)c2c(c(C)c1O)CCC(C)(C(=O)O)O2 (stereo not drawn) [Trolox] | – | – | – | –
– | – | COc1cccc2c1C(=O)c1c(O)c3c(c(O)c1C2=O)C[C@@](O)(C(=O)CO)C[C@@H]3O[C@H]1C[C@H](N)[C@H](O)[C@H](C)O1 [Doxorubicin (DOX), Doxorubicin] | 17.4 ± 1.25 (≈ 32.1 µM) | 1.49 | 11.7 ± 0.4 (≈ 21.5 µM) | 4.82 ± 0.18 (≈ 8.87 µM)
